Patent US20250332173A1, “COMPOUNDS AND METHODS FOR MODULATING NUCLEIC ACID SPLICING” (REMIX THERAPEUTICS INC., priority 2021, published 2025)

Legend:
[1] = tested on: Target C; assay: RT-qPCR splicing assay panel, Target C canonical junction (CJ) mRNA; assay type: cell-based, human; conditions: Homo sapiens; Table 5 panel; canonical junction qPCR; compound concentration having 50% response in CJ decrease; read-out: Target C IC50 (decrease in CJ mRNA levels)
Method in brief: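 K562/A673 cells, 11-pt 3-fold compound titration from 10 uM final, DMSO ≤0.25%, 24 h 37 °C 5% CO2; lyse (DNase I or Igepal/Tris buffer pH 7.4); RT-qPCR for CJ isoform vs housekeeping gene (GAPDH/GUSB/PPIA).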

[2] = tested on: MYB; assay: HiBiT protein abundance assay, MYB HiBiT K562 cell line; assay type: cell-based, human; conditions: HiBiT K562 cell line, 24 hours, top dose 10 μM; read-out: Effect on protein abundance, MYB (IC50 category)
Method in brief: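 Endogenous targets in K562 knock-in lines carried a HiBiT tag and were treated for 24 h at 37 °C with 10-point 3-fold dilutions (top 10 μM final, DMSO ≤0.25%). Abundance was read as lytic Nano-Glo HiBiT luminescence. IC50 came from a four-parameter logistic fit of normalized response.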

Structure (SMILES) | IC50 [1] [nM] | IC50 [2] [nM]
Cn1cc2cc(-n3cnc4cc(C5=CC6CCC(C5)N6)ccc4c3=O)ccc2n1 (centres unmarked) [Compound 160] | > 10000 | > 10000
Cc1cn2cc(-c3ccc4c(=O)n([C@H]5CCNC5)cc(C)c4c3)cc(C#N)c2n1 [Compound 456, (S)-2-methyl-6-(4-methyl-1-oxo-2-(pyrrolidin-3-yl)-1,2-dihydroisoquinolin-6-yl)imidazo[1,2-a]pyridine-8-carbonitrile] | > 10000 | 1000 to 10000
Cc1cn2nc(-c3cc4ccn(C5CCNCC5)c(=O)c4cc3O)cc(C)c2n1 [Compound 448, 6-{2,8-dimethylimidazo[1,2-b]pyridazin-6-yl}-7-hydroxy-2-(piperidin-4-yl)isoquinolin-1-one] | < 100 | < 100
Cc1cn2cc(-c3cc(F)c4c(=O)n(C5CCNCC5)ccc4c3)cc(F)c2n1 [Compound 370] | 100 to 1000 | < 100
Cc1cn2nc(-c3ccc4c(=O)n(C5CCNC6(CC6)C5)ccc4c3)cc(C)c2n1 (centres unmarked) [Compound 384] | 100 to 1000 | < 100
Cc1cn2nc(-c3ccc4c(=O)n([C@H]5CCNC[C@H]5F)cnc4c3)cc(C)c2n1 [Compound 372] | 1000 to 10000 | 100 to 1000
CCN1CCC(n2ccc3cc(-c4cc(C)c5nc(C)cn5n4)ccc3c2=O)CC1 [Compound 402, 6-{2,8-dimethylimidazo[1,2-b]pyridazin-6-yl}-2-(1-ethylpiperidin-4-yl)isoquinolin-1-one] | 100 to 1000 | < 100
Cc1cn2nc(-c3cc(F)c4c(=O)n([C@H]5CCNC6(CC6)C5)ccc4c3)cc(C)c2n1 (single isomer, unassigned) [Compound 426] | < 100 | < 100
Cn1cc2cc(-n3cnc4cc(C5CCNCC5)ccc4c3=O)ccc2n1 [Compound 172] | > 10000 | > 10000
Cc1cn2nc(-c3cc(O)c4c(=O)n(C5CCNC5)cc(C)c4c3)cc(C)c2n1 (centres unmarked) [Compound 462] | > 10000 | 100 to 1000
Cc1cn2nc(-c3cc(F)c4c(=O)n([C@@H]5CCNC6(CC6)C5)ccc4c3)cc(C)c2n1 (single isomer, unassigned) [Compound 425] | < 100 | < 100
CC(=O)c1cc(-c2cc(F)c3c(=O)n(C4CCNCC4)ccc3c2)cn2cc(C)nc12 [Compound 393, 6-{8-acetyl-2-methylimidazo[1,2-a]pyridin-6-yl}-8-fluoro-2-(piperidin-4-yl)isoquinolin-1-one 2,2,2-trifluoroacetate] | 1000 to 10000 | < 100
Cc1cc(-c2ccc3c(=O)n(C4CCNC5(COC5)C4)cnc3c2)cc2cn(C)nc12 (centres unmarked) [Compound 375] | 1000 to 10000 | 1000 to 10000
Cn1cc2cc(-c3cc(F)c4c(=O)n(C5CCNCC5)ccc4c3)cc(C#N)c2n1 [Compound 394, 5-(8-fluoro-1-oxo-2-(piperidin-4-yl)-1,2-dihydroisoquinolin-6-yl)-2-methyl-2H-indazole-7-carbonitrile] | 100 to 1000 | < 100
Cc1cn2cc(-c3cc(F)c4c(=O)n(C5CCOCC5)cnc4c3)cc(C#N)c2n1 [Compound 367, 6-[5-fluoro-3-(oxan-4-yl)-4-oxoquinazolin-7-yl]-2-methylimidazo[1,2-a]pyridine-8-carbonitrile] | 100 to 1000 | 100 to 1000
Cn1cc2cc(-c3cc(F)c4c(=O)n(C5CCNC6(CC6)C5)ccc4c3)c(O)cc2n1 (centres unmarked) [Compound 414, 2-{4-azaspiro[2.5]octan-7-yl}-8-fluoro-6-(6-hydroxy-2-methylindazol-5-yl)isoquinolin-1-one] | > 10000 | 1000 to 10000
Cc1nc2c(F)cc(-c3cc(F)c4c(=O)n(C5CCNC6(CC6)C5)ccc4c3)cc2n1C (centres unmarked) [Compound 430, 8-fluoro-6-(4-fluoro-1,2-dimethyl-1H-benzo[d]imidazol-6-yl)-2-(4-azaspiro[2.5]octan-7-yl)isoquinolin-1(2H)-one] | > 10000 | 1000 to 10000
Cn1cc2c(n1)CCN(c1cc(F)c3c(=O)n(C4CCNCC4)cnc3c1)C2 [Compound 365, 5-fluoro-7-(2-methyl-2,4,6,7-tetrahydro-5H-pyrazolo[4,3-c]pyridin-5-yl)-3-(piperidin-4-yl)quinazolin-4(3H)-one] | > 10000 | 1000 to 10000
Cc1cn2nc(-c3ccc4c(=O)n([C@H]5CCNC6(CC6)C5)ncc4c3)cc(C)c2n1 [Compound 369, 2-[(7S)-4-azaspiro[2.5]octan-7-yl]-6-{2,8-dimethylimidazo[1,2-b]pyridazin-6-yl}phthalazin-1-one] | < 100 | 1000 to 10000
